Legend:
A549 cells [1] = assay: Inhibition of inflammatory cytokine gene expression induced by IL-1β, RT-PCR, A549 cells; type: cell-based, human; details: IL-1β 2 ng/ml, peptide 10, 50, 100, 500 μM, 3 hours, RT-PCR (FIG. 8)
Experimental: A549 cells (human alveolar basal epithelial cells) were seeded at 3×10^5 cells/well in a 6-well plate and used in the experiment. After culturing for 1 day with a culture medium containing 10% FBS, the culture medium was replaced with a culture medium without containing FBS to induce starvation for 4 hours. A normal group without being treated with any substances, a group treated with IL-1β (2 ng/ml) (negative control group), groups treated with IL-1β (2 ng/ml) and the peptide of Production Example 1 (10, 50, 100, 500 μM), and a group treated with IL-1β (2 ng/ml) and 10 μM of Dexamethasone (DEX) (positive control group) were treated with the above-described active substances and drugs respectively, and then RNA was extracted after 3 hours to carry out RT-PCR. RNA was extracted from the A549 cells in each of the above groups using an easy-BLUE™ Total RNA extraction kit (Qiagen, Germany). The extracted RNA was converted into cDNA with RT-PCR premix (iNtRON Biotechnology, Seongnam, Korea). After preparing a reaction mixture with PCR premix (iNtRON Biotechnology, Seongnam, Korea) and primers for each gene, PCR was carried out using a PCR machine (Eppendorf, Germany). Next, the mRNA expression pattern was determined by agarose gel electrophoresis. The base sequences of the primers used in the experiment are as shown in [Table 2].

A549 cells [2] = assay: ELISA of inflammatory cytokine proteins induced by IL-1β, A549 cells; type: cell-based, human; details: IL-1β 2 ng/ml, peptide 10, 50, 100, 500 μM, 72 hours, culture supernatant (FIG. 9a-9c)
Experimental: A549 cells (human alveolar basal epithelial cells) were seeded at 2×10^5 cells/well in a 12-well plate and used in the experiment. After culturing for 1 day with a culture medium containing 10% FBS, the culture medium was replaced with a culture medium without containing FBS to induce starvation for 4 hours. Cells of a normal group (NON) without being treated with any substances, a group treated with IL-1β (2 ng/ml) (negative control group, NC), groups treated with IL-1β (2 ng/ml) and the peptide of Production Example 1 (10, 50, 100, 500 μM), and a group treated with IL-1β (2 ng/ml) and Dexamethasone (DEX) (10 μM) (positive control group) were treated with active substances and drugs respectively, and then cultured for 72 hours. After cell culture, the supernatant obtained by centrifuging the culture solution at 4° C. and 3,000 rpm for 10 minutes was subjected to ELISA analysis using an IL-6 Quantikine ELISA Kit (R&D systems), an IL-8 Quantikine ELISA Kit (R&D systems), and an IL-1β Quantikine ELISA Kit (R&D systems) according to the method of use in the kit instructions, and then the absorbance was measured at 450 nm using a microplate reader.

MRC-5 cells [3] = assay: Inhibition of LPS-induced inflammatory cytokine gene expression, RT-PCR, MRC-5 cells; type: cell-based; details: 5 μg/ml LPS, peptide 10, 50, 100, 500 μM, 24 hours, RT-PCR (FIG. 1)
Experimental: MRC-5 cells (lung fibroblast cells) were seeded at 3×10^5 cells/well in a 12-well plate and used in the experiment. After culturing for 1 day with a culture medium containing 10% FBS, the culture medium was replaced with a culture medium without containing FBS to induce starvation for 4 hours. A normal group without being treated with any substances, a group treated with 5 μg/ml of LPS (Sigma Aldrich) (negative control group), groups treated with 5 μg/ml of LPS and the peptide of Production Example 1 (10, 50, 100, 500 μM), and a group treated with 5 μg/ml of LPS and 10 μM of Dexamethasone (DEX) (positive control group) were treated with active substances and drugs respectively, and then RNA was extracted after 24 hours to carry out RT-PCR. RNA was extracted from MRC-5 cells using an easy-BLUE™ Total RNA extraction kit (Qiagen, Germany). The extracted RNA was converted into cDNA with RT-PCR premix (iNtRON Biotechnology, Seongnam, Korea). After preparing a reaction mixture with PCR premix (iNtRON Biotechnology, Seongnam, Korea) and primers for each gene, PCR was carried out using a PCR machine (Eppendorf, Germany). Next, the mRNA expression pattern was determined by agarose gel electrophoresis. The base sequences of the primers used in the experiment are listed in [Table 2] below.

MRC-5 cells [4] = assay: Western blotting of LPS-induced inflammatory cytokine/signaling proteins, MRC-5 cells; type: cell-based; details: 5 μg/ml LPS, peptide 10, 50, 100, 500 μM, 24 hours, Western blot (FIG. 3)
Experimental: MRC-5 cells (lung fibroblast cells) were seeded at 2×10^5 cells/well in a 6-well plate and used in the experiment. After culturing for 1 day with a culture medium containing 10% FBS, the culture medium was replaced with a culture medium without containing FBS to induce starvation for 4 hours. Cells of a normal group without being treated with any substances, a group treated with 5 μg/ml of LPS (Sigma Aldrich) (negative control group), groups treated with 5 μg/ml of LPS and the peptide of Production Example 1 (10, 50, 100, 500 μM), and a group treated with 5 μg/ml of LPS and 10 μM of Dexamethasone (DEX) (positive control group) were treated with active substances and drugs respectively and then cultured for 24 hours. The cultured cells of each treatment group and control group were lysed by adding a lysis buffer, and then centrifugation was carried out at 4° C. at 12,000 rpm for 30 minutes to obtain proteins, which were subsequently quantified using a BCA Protein Assay kit (Sigma). The proteins were subjected to SDS-PAGE (sodium dodecyl sulfate-polyacrylamide gel electrophoresis) and then subjected to electrotransfer to a membrane. The membrane to which the proteins were attached was treated with 5% skim milk for blocking and then subjected to a reaction with a primary antibody overnight at 4° C. After washing with PBS-T, the membrane was subjected to a reaction with a secondary antibody at room temperature for 1 hour, washed again with PBS-T, and then visualized by a Western detection reagent (Elpis Biotech, Daejeon, Korea) using Gel Doc (Bio-Rad, Hercules, CA, USA). The antibodies used in the experiment are as follows. An Anti-IL-1β antibody (Cell signaling technology (CST), USA), an anti-IL-6 antibody (Santa Cruz Biotechnology, USA), an anti-pJNK antibody (Santa Cruz Biotechnology, USA), an anti-pERK antibody (Cell signaling technology (CST), USA), and an anti-β-Actin antibody (Santa Cruz Biotechnology, USA).

KYLLVHRPYYRR [peptide of Production Example 1]
gene expression level of COX-2 (A549 cells [1]): decreases in a concentration-dependent manner
gene expression level of IL-1β (A549 cells [1]): decreases in a concentration-dependent manner
gene expression level of IL-6 (A549 cells [1]): decreases in a concentration-dependent manner
gene expression level of IL-8 (A549 cells [1]): decreases in a concentration-dependent manner
gene expression level of TNF-α (A549 cells [1]): decreases in a concentration-dependent manner
expression level of IL-1β (ELISA) (A549 cells [2]): decreases the expression levels of IL-1B, IL-6, and IL-8 in a concentration-dependent manner
expression level of IL-6 (ELISA) (A549 cells [2]): decreases the expression levels of IL-1B, IL-6, and IL-8 in a concentration-dependent manner
expression level of IL-8 (ELISA) (A549 cells [2]): decreases the expression levels of IL-1B, IL-6, and IL-8 in a concentration-dependent manner
gene expression of IL-1β (MRC-5 cells [3]): decreases in a concentration-dependent manner
gene expression of IL-6 (MRC-5 cells [3]): decreases in a concentration-dependent manner
gene expression of IL-8 (MRC-5 cells [3]): decreases in a concentration-dependent manner
gene expression of TNF-α (MRC-5 cells [3]): decreases in a concentration-dependent manner
expression of IL-1β (protein) (MRC-5 cells [4]): decreased again the expression of IL-1β, IL-6, pJNK, and pERK in a concentration-dependent manner
expression of IL-6 (protein) (MRC-5 cells [4]): decreased again the expression of IL-1β, IL-6, pJNK, and pERK in a concentration-dependent manner
expression of pERK (MRC-5 cells [4]): decreased again the expression of IL-1β, IL-6, pJNK, and pERK in a concentration-dependent manner
expression of pJNK (MRC-5 cells [4]): decreased again the expression of IL-1β, IL-6, pJNK, and pERK in a concentration-dependent manner
